Measurements taken from US20250134890A1, “ANTIMALARIAL HEXAHYDROPYRIMIDINE ANALOGUES” (UCB BIOPHARMA SRL, priority 2022, published 2025).
Counter-ions that a name gives are not always drawn.

test system: Plasmodium falciparum: 3D7 strain; experiment: P. falciparum 3D7 asexual blood stage assay (SYBR green readout); type: cell-based; details: Plasmodium falciparum, 3D7, Erythrocyte, 72 h, P. falciparum 3D7 in human erythrocytes, 72 h incubation, SYBR green fluorescence
How it was run: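 3D7-infected erythrocytes (5% haematocrit, 0.5% parasitaemia) were exposed 72 h at 37 °C under 1% O2/3% CO2 to a 20-point titration (50,000-15 nM final, 0.5% DMSO). Parasite DNA was read by SYBR green fluorescence after overnight lysis. Percent inhibition was set against mefloquine and DMSO, and EC50 came from a biphasic two-site fit.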

Structure (SMILES)	IC50 [nM]
C[C@H]1C[C@@H](N2C(=N)N[C@](C)(c3cccc(-c4cccc(C(F)(F)F)c4)c3Cl)CC2=O)CCO1 [Example 48, (6S)-6-{2-Chloro-3-[3-(trifluoro-methyl)phenyl]phenyl}-2-imino-6-methyl-3-[(2S,4S)-2-methyl-tetrahydropyran-4-yl]hexahydro-pyrimidin-4-one trifluoroacetic acid salt]	66
C[C@H]1C[C@@H](N2C(=N)N[C@](C)(c3cccc(-c4cccnc4)c3Cl)CC2=O)CCO1 [Example 49, (6S)-6-[2-Chloro-3-(pyridin-3-yl)-phenyl]-2-imino-6-methyl-3-[(2S,4S)-2-methyltetrahydropyran-4-yl]hexahydropyrimidin-4-one trifluoroacetic acid salt]	30
C[C@H]1C[C@@H](N2C(=N)N[C@](C)(c3cccc(-c4cccc(F)c4F)c3Cl)CC2=O)CCO1 [Example 50, (6S)-6-[2-Chloro-3-(2,3-difluoro-phenyl)phenyl]-2-imino-6-methyl-3-[(2S,4S)-2-methyltetrahydro-pyran-4-yl]hexahydropyrimidin-4-one trifluoroacetic acid salt]	84
C[C@H]1C[C@@H](N2C(=N)N[C@](C)(c3cccc(-c4ccc(F)cc4F)c3Cl)CC2=O)CCO1 [Example 51, (6S)-6-[2-Chloro-3-(2,4-difluoro-phenyl)phenyl]-2-imino-6-methyl-3-[(2S,4S)-2-methyltetrahydro-pyran-4-yl]hexahydropyrimidin-4-one trifluoroacetic acid salt]	95
Cc1cc(-c2cccc([C@]3(C)CC(=O)N([C@H]4CCO[C@@H](C)C4)C(=N)N3)c2Cl)n(C)n1 [Example 52, (6S)-6-[2-Chloro-3-(2,5-dimethyl-pyrazol-3-yl)phenyl]-2-imino-6-methyl-3-[(2S,4S)-2-methyl-tetrahydropyran-4-yl]hexahydro-pyrimidin-4-one trifluoroacetic acid salt]	438
C[C@H]1C[C@@H](N2C(=N)N[C@](C)(c3cccc(-c4cccc(-c5ccn[nH]5)c4)c3Cl)CC2=O)CCO1 [Example 53, (6S)-6-{2-Chloro-3-[3-(1H-pyrazol-5-yl)phenyl]phenyl}-2-imino-6-methyl-3-[(2S,4S)-2-methyl-tetrahydropyran-4-yl]hexahydro-pyrimidin-4-one trifluoroacetic acid salt]	25
C[C@H]1C[C@@H](N2C(=N)N[C@](C)(c3cccc(-c4cnoc4)c3Cl)CC2=O)CCO1 [Example 54, (6S)-6-[2-Chloro-3-(isoxazol-4-yl)-phenyl]-2-imino-6-methyl-3-[(2S,4S)-2-methyltetrahydropyran-4-yl]hexahydropyrimidin-4-one trifluoroacetic acid salt]	42
C[C@H]1C[C@@H](N2C(=N)N[C@](C)(c3cccc(-c4ccc(Cl)nc4)c3Cl)CC2=O)CCO1 [Example 55, (6S)-6-[2-Chloro-3-(6-chloro-pyridin-3-yl)phenyl]-2-imino-6-methyl-3-[(2S,4S)-2-methyl-tetrahydropyran-4-yl]hexahydro-pyrimidin-4-one trifluoroacetic acid salt]	11
C[C@H]1C[C@@H](N2C(=N)N[C@](C)(c3cccc(-c4cccc5cnn(C)c45)c3Cl)CC2=O)CCO1 [Example 56, (6S)-6-[2-Chloro-3-(1-methyl-indazol-7-yl)phenyl]-2-imino-6-methyl-3-[(2S,4S)-2-methyl-tetrahydropyran-4-yl]hexahydro-pyrimidin-4-one trifluoroacetic acid salt]	43
C[C@H]1C[C@@H](N2C(=N)N[C@](C)(c3cccc(-c4ccncc4Cl)c3Cl)CC2=O)CCO1 [Example 57, (6S)-6-[2-Chloro-3-(3-chloro-pyridin-4-yl)phenyl]-2-imino-6-methyl-3-[(2S,4S)-2-methyl-tetrahydropyran-4-yl]hexahydro-pyrimidin-4-one trifluoroacetic acid salt]	61
COc1cncc(-c2cccc([C@]3(C)CC(=O)N([C@H]4CCO[C@@H](C)C4)C(=N)N3)c2Cl)c1 [Example 58, (6S)-6-[2-Chloro-3-(5-methoxy-pyridin-3-yl)phenyl]-2-imino-6-methyl-3-[(2S,4S)-2-methyl-tetrahydropyran-4-yl]hexahydro-pyrimidin-4-one trifluoroacetic acid salt]	124
COc1cc(-c2cccc([C@]3(C)CC(=O)N([C@H]4CCO[C@@H](C)C4)C(=N)N3)c2Cl)ccn1 [Example 59, (6S)-6-[2-Chloro-3-(2-methoxy-pyridin-4-yl)phenyl]-2-imino-6-methyl-3-[(2S,4S)-2-methyl-tetrahydropyran-4-yl]hexahydro-pyrimidin-4-one trifluoroacetic acid salt]	61
C[C@H]1C[C@@H](N2C(=N)N[C@](C)(c3cccc(-c4ccc(C#N)cc4)c3Cl)CC2=O)CCO1 [Example 60, 4-(2-Chloro-3-{(4S)-2-imino-4-methyl-1-[(2S,4S)-2-methyl-tetrahydropyran-4-yl]-6-oxo-hexahydropyrimidin-4-yl}phenyl)-benzonitrile trifluoroacetic acid salt]	297
C[C@H]1C[C@@H](N2C(=N)N[C@](C)(c3cccc(-c4cn(-c5cc(F)c(F)cc5F)nn4)c3Cl)CC2=O)CCO1 [Example 109, (6S)-6-{2-Chloro-3-[1-(2,4,5-trifluorophenyl)-1,2,3-triazol-4-yl]-phenyl}-2-imino-6-methyl-3-[(2S,4S)-2-methyltetrahydropyran-4-yl]hexahydropyrimidin-4-one hydrochloride]	171
C[C@H]1C[C@@H](N2C(=N)N[C@](C)(c3cccc(-c4cn(CC(F)(F)F)nn4)c3Cl)CC2=O)CCO1 [Example 110, (6S)-6-{2-Chloro-3-[1-(2,2,2-trifluoroethyl)-1,2,3-triazol-4-yl]-phenyl}-2-imino-6-methyl-3-[(2S,4S)-2-methyltetrahydropyran-4-yl]hexahydropyrimidin-4-one hydrochloride]	13
C[C@H]1C[C@@H](N2C(=N)N[C@](C)(c3cccc(-c4cn(-c5cccc(F)c5)nn4)c3Cl)CC2=O)CCO1 [Example 111, (6S)-6-{2-Chloro-3-[1-(3-fluoro-phenyl)-1,2,3-triazol-4-yl]phenyl}-2-imino-6-methyl-3-[(2S,4S)-2-methyltetrahydropyran-4-yl]-hexahydropyrimidin-4-one hydrochloride]	66
C[C@H]1C[C@@H](N2C(=N)N[C@](C)(c3cccc(-c4cn(CCN(C)C)nn4)c3Cl)CC2=O)CCO1 [Example 114, (6S)-6-(2-Chloro-3-{1-[2-(dimethylamino)ethyl]-1,2,3-triazol-4-yl}phenyl)-2-imino-6-methyl-3-[(2S,4S)-2-methyl-tetrahydropyran-4-yl]hexahydro-pyrimidin-4-one trifluoroacetic acid salt]	938
C[C@H]1C[C@@H](N2C(=N)N[C@](C)(c3cccc(-c4cn([C@@H](C)c5cccnc5)nn4)c3Cl)CC2=O)CCO1 [Example 115, (6S)-6-(2-Chloro-3-{1-[(1S)-1-(pyridin-3-yl)ethyl]-1,2,3-triazol-4-yl}phenyl)-2-imino-6-methyl-3-[(2S,4S)-2-methyltetrahydropyran-4-yl]hexahydropyrimidin-4-one trifluoroacetic acid salt]	210
C[C@H]1C[C@@H](N2C(=N)N[C@](C)(c3cccc(-c4cn(CC5CC(F)(F)C5)nn4)c3Cl)CC2=O)CCO1 [Example 116, (6S)-6-(2-Chloro-3-{1-[(3,3-difluorocyclobutyl)methyl]-1,2,3-triazol-4-yl}phenyl)-2-imino-6-methyl-3-[(2S,4S)-2-methyl-tetrahydropyran-4-yl]hexahydro-pyrimidin-4-one trifluoroacetic acid salt]	208
C[C@H]1C[C@@H](N2C(=N)N[C@](C)(c3cccc(-c4cn(Cc5cccnc5)nn4)c3Cl)CC2=O)CCO1 [Example 117, (6S)-6-{2-Chloro-3-[1-(pyridin-3-ylmethyl)-1,2,3-triazol-4-yl]-phenyl}-2-imino-6-methyl-3-[(2S,4S)-2-methyltetrahydropyran-4-yl]hexahydropyrimidin-4-one trifluoroacetic acid salt]	371
C[C@H]1C[C@@H](N2C(=N)N[C@](C)(c3cccc(-c4cn(CCN5CCCC5)nn4)c3Cl)CC2=O)CCO1 [Example 118, (6S)-6-(2-Chloro-3-{1-[2-(pyrrolidin-1-yl)ethyl]-1,2,3-triazol-4-yl}phenyl)-2-imino-6-methyl-3-[(2S,4S)-2-methyl-tetrahydropyran-4-yl]hexahydro-pyrimidin-4-one trifluoroacetic acid salt]	1010

same assay, conditions: Plasmodium falciparum, Erythrocyte; P. falciparum 3D7 in human erythrocytes, 72 h incubation, SYBR green fluorescence; read-out: IC50

IC50 [nM]	Structure (SMILES)
122	CN1CCC(N2C(=N)N[C@](C)(c3cccc(-c4cccc(Cl)c4)c3Cl)CC2=O)CC1 [Example 90, (6S)-6-[2-Chloro-3-(3-chloro-phenyl)phenyl]-2-imino-6-methyl-3-(1-methylpiperidin-4-yl)-hexahydropyrimidin-4-one]
6400	CN1CCC(N2C(=N)N[C@](C)(c3cccc(-c4ccc(OC(F)(F)F)cc4Cl)c3Cl)CC2=O)CC1 [Example 91, (6S)-6-{2-Chloro-3-[2-chloro-4-(trifluoromethoxy)phenyl]phenyl}-2-imino-6-methyl-3-(1-methyl-piperidin-4-yl)hexahydropyrimidin-4-one]
50	CN1CCC(N2C(=N)N[C@](C)(c3cccc(-c4cc(Cl)ccc4Cl)c3Cl)CC2=O)CC1 [Example 92, (6S)-6-[2-Chloro-3-(2,5-dichloro-phenyl)phenyl]-2-imino-6-methyl-3-(1-methylpiperidin-4-yl)-hexahydropyrimidin-4-one]
112	CN1CCC(N2C(=N)N[C@](C)(c3cccc(-c4ccc(F)cc4F)c3Cl)CC2=O)CC1 [Example 93, (6S)-6-[2-Chloro-3-(2,4-difluoro-phenyl)phenyl]-2-imino-6-methyl-3-(1-methylpiperidin-4-yl)-hexahydropyrimidin-4-one]
